Source: patent publication US20060199862A1, “Method for enhancing cognitive function” (priority 2005, published 2006)
Like-named read-outs stand apart in the source and are kept apart here.

Assays:
[1] = test system: rats with cognitive impairments induced by amyloid injection (A-beta 25-35 in nucleus basalis magnocellularis); settings: for Number of visits Repeated (to the same arm) / Number of visits Total (visited arms): Y-maze 5 min, next day after last injection, mean±SD, n=8
Protocol: Beta-amyloid 25-35 (A-beta 25-35) was injected in nucleus basalis magnocellularis (NBM) of rats to induce model of cognitive impairments relevant to human Alzheimer's disease as described. Harkany T et al., Behav Brain Res. 1998 90(2):133-45. Harkany T et al., Prog Neuropsychopharmacol Biol Psychiatry. 1999 23(6):963-1008.
A-beta 25-35 was administered bilaterally into NBM of male Wistar rats in dose of 2 μg per each side. Since 16th day of A-beta 25-35 injection, rats were injected i.p. with 1 mg/kg or 50 mg/kg the compound of the formula (I) or saline (control) for 7 days singly a day. The effect of the compound of the formula (I) on cognitive functions was tested in a model of spontaneous alteration in Y-maze at next day from the day of the last injection. It is a suitable model for assessing memory impairments. Total number of visited arms and number of repeated visits to the same arm for 5 min was counted. […] Data are presented in table 2 as the number of visits mean±SD (n=8).

[2] = test system: rats with chronic cerebral ischemia induced by chronic bilateral ligation of common carotid arteries; settings: for Latency, s Post-shock / Latency, s Pre-shock: test on day 8 since ligation, mean±SD, n=8; for Latency, s Post-shock: 24 hours after the shock
Protocol: The effect of the compound of the formula (I) on cognitive function was assessed in rats with chronic cerebral ischemia induced by chronic bilateral ligation of common carotid arteries. The ligation was made in Wistar male rats 3 hours prior the first injection of the compound of the formula (I) or saline. Rats were injected i.p. with 1 mg/kg or 50 mg/kg the compound of the formula (I) or saline (control) for 7 days singly a day. Passive avoidance step-through paradigm test (short-term learning) was made on day 8th since the ligation. The pre-shock and post-shock latency time was used as an index of cognitive impairments. […] Data are presented in table 1 as the latency time mean±SD (n=8).

[3] = 1 mg/kg i.p. once a day for 7 days from day 16 after A-beta 25-35
[4] = 50 mg/kg i.p. once a day for 7 days from day 16 after A-beta 25-35
[5] = 1 mg/kg i.p. once a day for 7 days
[6] = 50 mg/kg i.p. once a day for 7 days

## C[N+](C)(C)CCO.C[N+](C)(C)CCO.O=C([O-])CCC(=O)[O-] [Compound of the formula (I), bis[2-hydroxyethyl-N,N,N-trimethylaminium]butanedioate]
[1]; [3]
  Number of visits Repeated (to the same arm): 0.65 ± 0.24
  Number of visits Total (visited arms): 3.00 ± 0.41
[1]; [4]
  Number of visits Repeated (to the same arm): 0.75 ± 0.29
  Number of visits Total (visited arms): 2.55 ± 0.33
[1]; cognitive function impaired by amyloid toxicity, vs saline control
  Effect on cognitive function (memory) as compared to the control: significantly enhanced cognitive function (memory)
[2]; [5]
  Latency, s Post-shock: 99.3 ± 24.5 s
  Latency, s Pre-shock: 13.5 ± 4.3 s
[2]; [6]
  Latency, s Post-shock: 53.3 ± 16.3 s
  Latency, s Pre-shock: 27.7 ± 13.1 s
[2]; cognitive impairments induced by chronic cerebral ischemia, vs saline control
  Effect on cognitive function as compared to the control: significantly enhanced cognitive function
